According to the supplement of paper PMC12317010:
Structures can show the parent of a compound that is named as a salt.

Experiment: collision cross section in nitrogen (drift tube, single-field); higher = larger gas-phase ion size
[1] = ion type: [M+H], ion source: APCI, ion mode: Positive
[2] = ion type: [M+H], ion source: ESI, ion mode: Positive
[3] = ion type: [M+], ion source: APCI, ion mode: Positive
[4] = ion type: [M-H], ion source: ESI, ion mode: Negative
[5] = ion type: [M+Na], ion source: ESI, ion mode: Positive
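Further: chemical standards at 10 µM analysed by drift tube IMS-QTOF MS in about 3.95 torr nitrogen, mean of duplicate injections differing ≤1%, mass error below 10 ppm.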

SMILES	collision cross section in nitrogen [1] [Å²]	collision cross section in nitrogen [2] [Å²]	collision cross section in nitrogen [3] [Å²]	collision cross section in nitrogen [4] [Å²]	collision cross section in nitrogen [5] [Å²]
Cc1cccc(N)n1 [6-Methylpyridin-2-amine]	118.6	119.5			
Cc1ccc2ncccc2c1 [6-Methylquinoline]	125.7	125.8	124.3		
Cc1cc(=O)[nH]c(=O)[nH]1 [6-Methyluracil]				120.5	
O=[N+]([O-])c1ccc2[nH]cnc2c1 [6-Nitrobenzimidazole]	136.5	136.5		123.6	
Nc1nc(N)nc(-c2ccccc2)n1 [6-Phenyl-1,3,5-triazine-2,4-diamine]	140.2	140.6			
Nc1nc2nc[nH]c2c(=S)[nH]1 [6-Thioguanine]	132.4	133.4		128.9	142.3
NC(=O)c1ccc(N)nc1 [6-aminopyridine-3-carboxamide]	130.2	131.3		124.5	
Cc1cc(C)c(O)c(C(C)(C)C)c1 [6-tert-Butyl-2,4-xylenol]				144.9	
O=[PH]1Oc2ccccc2-c2ccccc21 (stereo not given) [6H-Dibenzo[c,e][1,2]oxaphosphinine 6-oxide]		146.1		145.8	
O=C1c2ccccc2C(=O)c2c1ccc1ccccc21 [7,12-Benz(a)anthraquinone]				155.7	
Cc1c2ccccc2c(C)c2c1ccc1ccccc12 [7,12-Dimethylbenz[a]anthracene]			155.2		
Cc1cc(=O)oc2cc(N(C)C)ccc12 [7-(Dimethylamino)-4-methylcoumarin]	140.9	141.3		148.6	165.6
Nc1ccc2c(O)cc(S(=O)(=O)O)cc2c1 [7-Amino-4-hydroxynaphthalene-2-sulfonic acid]				153.3	
CCN(CC)c1ccc2c(C)cc(=O)oc2c1 [7-Diethylamino-4-methylcoumarin]	152.6	152.6		159.4	176.4
CCCCC(CC)CCC(CC(C)C)OS(=O)(=O)O (stereo not given) [7-Ethyl-2-methyl-4-undecanolsulfate, sodium salt]				175.2	
O=S(=O)(O)c1ccc(O)c2ncccc12 [8-Hydroxyquinoline-5-sulfonic acid hydrate (1:x)]		146.7		142.4	
Nc1c2ccccc2nc2ccccc12 [9-Aminoacridine hydrochloride monohydrate]	138.8	138.9	139	139.3	
CCn1c2ccccc2c2cc([N+](=O)[O-])ccc21 [9-Ethyl-3-nitro-9H-carbazole]		152			
O=[N+]([O-])c1c2ccccc2cc2ccccc12 [9-Nitroanthracene]	145.5			145.1	
Oc1cc2ccccc2c2ccccc12 [9-Phenanthrol]				140.7	
CC(C)CCCCCCCCCCCCCCC(=O)O [16-Methylheptadecanoic acid]				177.5	

SMILES	collision cross section in nitrogen [1] [Å²]	collision cross section in nitrogen [2] [Å²]	collision cross section in nitrogen [3] [Å²]	collision cross section in nitrogen [4] [Å²]	collision cross section in nitrogen [5] [Å²]
CCCCCC(=O)O[C@]1(C(C)=O)CC[C@H]2[C@@H]3CCC4=CC(=O)CC[C@]4(C)[C@H]3CC[C@@]21C [17-((1-Oxohexyl)oxy)pregn-4-ene-3,20-dione]				212.9	225.6
C[C@]12CCC(=O)C=C1CC[C@@H]1[C@@H]2CC[C@@]2(C)[C@H]1CC[C@]2(C)O [17-Methyltestosterone]		177.6			
C#C[C@]1(O)CC[C@H]2[C@@H]3CCc4cc(O)ccc4[C@H]3CC[C@@]21C [17alpha-Ethinylestradiol]				182.3	
CC(=O)[C@@]1(O)CC[C@H]2[C@@H]3CCC4=CC(=O)CC[C@]4(C)[C@H]3CC[C@@]21C [17alpha-Hydroxyprogesterone]				184.4	
C[C@]12C=CC3=C4CCC(=O)C=C4CC[C@H]3[C@@H]1CC[C@@H]2O [17beta-Trenbolone]	166.2	166.4		168.7	192.3
C[C@]12CC[C@H]3[C@@H](CCC4=CC(=O)CC[C@@]43C)[C@@H]1CC[C@@H]2C(=O)CO [21-Hydroxyprogesterone]		185.7		186.5	
C/C=C/C=C/CO [(2E,4E)-Hexa-2,4-dien-1-ol]			117.4		
CNC[C@H](O)[C@@H](O)[C@H](O)[C@H](O)CO [(2R,3R,4R,5S)-6-(Methylamino)hexane-1,2,3,4,5-pentol]	141	141.3		140.4	147.7
CC(Cc1ccc(C(C)(C)C)cc1)CN1C[C@@H](C)O[C@@H](C)C1 (stereo partly drawn) [(2R,6S)-Fenpropimorph]	173.1	173.5			
CC1(C)CCC[C@]2(C)[C@H]3CC(=O)O[C@]3(C)CC[C@@H]12 [(3aR)-(+)-Sclareolide]					181.5
Nc1ccc([As](=O)(O)O)cc1 [(4-Aminophenyl)arsonic acid]		130.9		139	144.9
CCCCC[C@H](O)CC(=O)CCc1ccc(O)c(OC)c1 [(6)-Gingerol]				169.5	180.3
CCCCCC[C@@H](O)C/C=C\CCCCCCCC(=O)O [(9Z,12R)-12-Hydroxyoctadec-9-enoic acid]				178.6	189.7
CCOC(=O)[C@@H](O)[C@H](O)C(=O)OCC [(-)-Diethyl-D-tartrate]					153.6
O=C1OC[C@H](Cc2cccc(O)c2)[C@H]1Cc1cccc(O)c1 [(-)-Enterolactone]				165.3	178.2
O=C(O[C@@H]1Cc2c(O)cc(O)cc2O[C@@H]1c1cc(O)c(O)c(O)c1)c1cc(O)c(O)c(O)c1 [(-)-Epigallocatechin gallate]					212.4
CN1CCC[C@H]1c1cccnc1 [(-)-Nicotine]	136.5	137.2			
CNC[C@H](O)c1cccc(O)c1 [(-)-Phenylephrine hydrochloride]				138.7	
C=C(C)C(=O)OCCOC1CC2CC1C1C=CCC21 (stereo not given) [(Dicyclopentadienyloxy)ethyl methacrylate]					170.7
O=C(N[C@H]1CN2CCC1CC2)c1cc2ccoc2cn1 [(R)-N-(Quinuclidin-3-yl)furo(2,3-C)pyridine-5-carboxamide]	168.1	168		172.1	181
O=c1[nH]c(=O)n([C@H]2CCCO2)cc1F [(R)-Tegafur]				142.2	

SMILES	collision cross section in nitrogen [1] [Å²]	collision cross section in nitrogen [2] [Å²]	collision cross section in nitrogen [3] [Å²]	collision cross section in nitrogen [4] [Å²]	collision cross section in nitrogen [5] [Å²]
CCCCCCCC/C=C\CCCCCCCCN [(Z)-9-Octadecenylamine]		180.2			
CCCC/C=C\CCCCCCCCCC=O [(Z)-11-Hexadecenal]				163.6	
CCCCCC/C=C\CCCCCCCC(=O)O [(Z)-Hexadec-9-enoic acid]				168.4	
O=C(NC(=O)c1cc(F)c(F)cc1Cl)Nc1cc(F)ccc1N1CCC(C(=O)O)CC1 [AVE2865]	202.7	202.4		196.2	195.9
O=C(O)c1ccc2c(c1)nc(C(=O)NC1CCN(C3CC3)CC1)n2Cc1cc(-c2ccc(Cl)s2)on1 [AVE3247]	228.1	228.8		249.7	242.2
CC[C@H](NC(=O)c1cc(F)ccc1NS(=O)(=O)c1cccc2cccnc12)c1ccccc1 [AVE3295]	198	197.4		203	205.8
NCc1cccc(C2CCN(C(=O)c3ccc(C#Cc4ccccc4F)o3)CC2)c1 [AVE5638]	192.1	192.4			
CCOC(=O)O[C@H](C)OC(=O)c1ccc2c(c1)cc(C(=O)NC1CCN(C(C)C)CC1)n2Cc1cc(-c2ccc(Cl)s2)on1 [AVE6324]	268	267.7		269.8	276.4
CCCOc1sc(C(=O)N2CCC(c3cc(CN)ccc3F)CC2)c(C)c1Br [AVE8923]	197.2				204.9
O=C(O)c1ccccc1-n1cc(C(=O)O)c(=O)c2cc(Nc3c(F)cc(F)cc3Cl)c(Cl)cc21 [AVE9423]	210.6	210.8		216.1	223.5
COP(=O)(NC(C)=O)SC (stereo not given) [Acephate]				133.9	141
CC1=CC(=O)NS(=O)(=O)O1 [Acesulfame potassium]				125.1	
CC(=O)Nc1ccc(O)cc1 [Acetaminophen]				132.5	
C/C(=N\C#N)N(C)Cc1ccc(Cl)nc1 [Acetamiprid]	155.1	154.6		149.1	157.7
CC(=O)Nc1nnc(S(N)(=O)=O)s1 [Acetazolamide]				137.8	
CC(=O)CC(=O)Nc1ccccc1 [Acetoacetanilide]				138	
CCOCN(C(=O)CS(=O)(=O)O)c1c(C)cccc1CC [Acetochlor ESA]				172.3	
CCCCOC(=O)CC(CC(=O)OCCCC)(OC(C)=O)C(=O)OCCCC [Acetyl tributyl citrate]					207
CC(=O)O[C@H](CC(=O)[O-])C[N+](C)(C)C [Acetyl-L-carnitine hydrochloride]		143.9			
Nc1c(S(=O)(=O)O)cc(Nc2ccccc2)c2c1C(=O)c1ccccc1C2=O [Acid Blue 25]		190.2		191.1	
